Experimental data published in paper PMC10408569, “Recruitment of hexahydroquinoline as anticancer scaffold targeting inhibition of wild and mutants EGFR (EGFR^WT, EGFR^T790M, and EGFR^L858R)” (Journal of Enzyme Inhibition and Medicinal Chemistry, 2023).

Tests used:
Assay in all cases: NCI-60 anticancer screening (SRB)
Assay type in all cases: cell-based
U251 = conditions: Homo sapiens, U-251; U251, CNS cancer; one dose 10 μM; read-out: Growth Inhibition Percentage (GI %)
TK-10 = conditions: Homo sapiens; TK-10, renal cancer; one dose 10 μM; read-out: Growth Inhibition Percentage (GI %)
SK-OV-3 = conditions: Homo sapiens; SK-OV-3, ovarian cancer; one dose 10 μM; read-out: Growth Inhibition Percentage (GI %)
KM 12 = conditions: Homo sapiens, KM12; KM 12, colon cancer; one dose 10 μM; read-out: Growth Inhibition Percentage (GI %)
RPMI-8226 = conditions: Homo sapiens; RPMI-8226, leukemia; one dose 10 μM; read-out: Growth Inhibition Percentage (GI %)
A549/ATCC = conditions: Homo sapiens; A549/ATCC, NSC lung cancer; one dose 10 μM; read-out: Growth Inhibition Percentage (GI %)
MDA-MB-468 = conditions: Homo sapiens; MDA-MB-468, breast cancer; one dose 10 μM; read-out: Growth Inhibition Percentage (GI %)
T-47D = conditions: Homo sapiens, T47D, breast cancer, one dose 10 μM, read-out: Growth Inhibition Percentage (GI %)
SR = conditions: Homo sapiens, leukemia, one dose 10 μM, read-out: Growth Inhibition Percentage (GI %)
NCI-H322M = conditions: Homo sapiens, NSC lung cancer, one dose 10 μM, read-out: Growth Inhibition Percentage (GI %)
SK-MEL-2 = conditions: Homo sapiens; SK-MEL-2, melanoma; one dose 10 μM; read-out: Growth Inhibition Percentage (GI %)
SW-620 = conditions: Homo sapiens; SW-620, colon cancer; one dose 10 μM; read-out: Growth Inhibition Percentage (GI %)
CCRF-CEM = conditions: Homo sapiens, leukemia, one dose 10 μM, read-out: Growth Inhibition Percentage (GI %)
ACHN = conditions: Homo sapiens, renal cancer, one dose 10 μM, read-out: Growth Inhibition Percentage (GI %)
LOX IMVI = conditions: Homo sapiens, melanoma, one dose 10 μM, read-out: Growth Inhibition Percentage (GI %)
OVCAR-5 = conditions: Homo sapiens; OVCAR-5, ovarian cancer; one dose 10 μM; read-out: Growth Inhibition Percentage (GI %)
MALME-3M = conditions: Homo sapiens, melanoma, one dose 10 μM, read-out: Growth Inhibition Percentage (GI %)
SK-MEL-28 = conditions: Homo sapiens; SK-MEL-28, melanoma; one dose 10 μM; read-out: Growth Inhibition Percentage (GI %)
HOP-92 = conditions: Homo sapiens; HOP-92, NSC lung cancer; one dose 10 μM; read-out: Growth Inhibition Percentage (GI %)
HCC-2998 = conditions: Homo sapiens; HCC-2998, colon cancer; one dose 10 μM; read-out: Growth Inhibition Percentage (GI %)
BT-549 = conditions: Homo sapiens; BT-549, breast cancer; one dose 10 μM; read-out: Growth Inhibition Percentage (GI %)
MDA-MB-231 = conditions: Homo sapiens; MDA-MB-231, breast cancer; one dose 10 μM; read-out: Growth Inhibition Percentage (GI %)
OVCAR-3 = conditions: Homo sapiens; OVCAR-3, ovarian cancer; one dose 10 μM; read-out: Growth Inhibition Percentage (GI %)
CAKI-1 = conditions: Homo sapiens; CAKI-1, renal cancer; one dose 10 μM; read-out: Growth Inhibition Percentage (GI %)
NCI-H226 = conditions: Homo sapiens; NCI-H226, NSC lung cancer; one dose 10 μM; read-out: Growth Inhibition Percentage (GI %)
A498 = conditions: Homo sapiens; A498, renal cancer; one dose 10 μM; read-out: Growth Inhibition Percentage (GI %)
SNB-75 = conditions: Homo sapiens; SNB-75, CNS cancer; one dose 10 μM; read-out: Growth Inhibition Percentage (GI %)
SN 12C = conditions: Homo sapiens, SN12C; SN 12C, renal cancer; one dose 10 μM; read-out: Growth Inhibition Percentage (GI %)
SNB-19 = conditions: Homo sapiens; SNB-19, CNS cancer; one dose 10 μM; read-out: Growth Inhibition Percentage (GI %)
786-0 = conditions: Homo sapiens; 786-0, renal cancer; one dose 10 μM; read-out: Growth Inhibition Percentage (GI %)
SK-MEL-5 = conditions: Homo sapiens; SK-MEL-5, melanoma; one dose 10 μM; read-out: Growth Inhibition Percentage (GI %)
EKVX = conditions: Homo sapiens, NSC lung cancer, one dose 10 μM, read-out: Growth Inhibition Percentage (GI %)
OVCAR-4 = conditions: Homo sapiens; OVCAR-4, ovarian cancer; one dose 10 μM; read-out: Growth Inhibition Percentage (GI %)

Structure (SMILES) | inhibition at 10 µM (U251) | inhibition at 10 µM (TK-10) | inhibition at 10 µM (SK-OV-3) | inhibition at 10 µM (KM 12) | inhibition at 10 µM (RPMI-8226) | inhibition at 10 µM (A549/ATCC) | inhibition at 10 µM (MDA-MB-468) | inhibition at 10 µM (T-47D) | inhibition at 10 µM (SR) | inhibition at 10 µM (NCI-H322M) | inhibition at 10 µM (SK-MEL-2) | inhibition at 10 µM (SW-620) | inhibition at 10 µM (CCRF-CEM) | inhibition at 10 µM (ACHN) | inhibition at 10 µM (LOX IMVI) | inhibition at 10 µM (OVCAR-5) | inhibition at 10 µM (MALME-3M) | inhibition at 10 µM (SK-MEL-28) | inhibition at 10 µM (HOP-92) | inhibition at 10 µM (HCC-2998) | further results
CCOC(=O)C1=C(N)N(c2ccccc2)C2=C(C(=O)CC(C)(C)C2)C1c1ccc(OC)cc1 (racemic) [8f, (±)-Ethyl2-amino-4–(4-methoxyphenyl)-7,7-dimethyl-5-oxo-1-phenyl-1,4,5,6,7,8-hexahydroquinoline-3-carboxylate] | < 10% | < 10% | < 10% | < 10% | 15% | < 10% | < 10% | 11% | 18% | < 10% | 16% | < 10% | < 10% | < 10% | < 10% | < 10% | < 10% | < 10% | < 10% | < 10% | inhibition at 10 µM (BT-549): < 10%; inhibition at 10 µM (MDA-MB-231): < 10%; inhibition at 10 µM (OVCAR-3): < 10%; inhibition at 10 µM (CAKI-1): 22%; inhibition at 10 µM (NCI-H226): 12%; inhibition at 10 µM (A498): < 10%; inhibition at 10 µM (SNB-75): < 10%; inhibition at 10 µM (SN 12C): < 10%; inhibition at 10 µM (SNB-19): 14%; inhibition at 10 µM (786-0): 11%; inhibition at 10 µM (SK-MEL-5): < 10%; inhibition at 10 µM (EKVX): < 10%; inhibition at 10 µM (OVCAR-4): < 10%
CCOC(=O)C1=C(N)N(c2ccc(Cl)cc2)C2=C(C(=O)CC(C)(C)C2)C1c1ccc([N+](=O)[O-])cc1 (racemic) [8k, (±)-Ethyl2-amino-1–(4-chlorophenyl)-7,7-dimethyl-4–(4-nitrophenyl)-5-oxo-1,4,5,6,7,8-hexahydroquinoline-3-carboxylate] | < 10% | < 10% | < 10% | 12% | 43% | 11% | 18% | 27% | 32% | < 10% | 19% | < 10% | < 10% | 12% | 21% | < 10% | < 10% | < 10% | < 10% | < 10% | inhibition at 10 µM (BT-549): < 10%; inhibition at 10 µM (MDA-MB-231): < 10%; inhibition at 10 µM (OVCAR-3): < 10%; inhibition at 10 µM (CAKI-1): 11%; inhibition at 10 µM (NCI-H226): 15%; inhibition at 10 µM (A498): < 10%; inhibition at 10 µM (SNB-75): < 10%; inhibition at 10 µM (SN 12C): < 10%; inhibition at 10 µM (SNB-19): < 10%; inhibition at 10 µM (786-0): < 10%; inhibition at 10 µM (SK-MEL-5): < 10%; inhibition at 10 µM (EKVX): 15%; inhibition at 10 µM (OVCAR-4): < 10%
